Results: patent US20210179683A1, “METHOD OF RESPONSE PREDICTION FOR BCL2 FAMILY PROTEIN TARGETING DRUG” (Proteina Co., Ltd., priority 2019, published 2021)

Assays:
[1] = molecular target: T1, BCL2-BAD interaction (Homo sapiens, UniProt P10415); assay: PPI between endogenous BCL2 of drug-treated cells and exogenous BAD-GFP (single-molecule pull-down, TIRF); type: cell-based; conditions: 24 hours
T1 construct: endogenous in cells; host or cells: HL60, OCI-LY3
Description: (§1) Blood cancer cells (The Korean Cell Line Bank and ATCC; HL-60 (CVCL_0002), OCI-LY3 (CVCL_8800)), Ramos (CVCL_0597), U937, THP1, and SUDHL8) and the blood cancer cell pellets from buffy coats of patients were each suspended in a lysis buffer (HEPES 50 mM NaCl 150 mM Glycerol 10% (w/v) GDN (Digitonin) 1% (w/v) with 2% (w/v) phosphatase inhibitor cocktail ⅔ (P5726, P0044)) and vortexed three times at regular intervals of 10 min. After 30 min, the lysis buffer containing the pellet homogenate was centrifuged at 15,000 g for 10 min. The supernatant thus formed was used as an analysis lysate to be applied to a substrate in subsequent experiments. […]
The cell lysate, prepared in Example 1.2, containing the probe-labeled first protein-interacting protein was added to the substrate prepared in Example 1.3. […] Then, protein-protein interactions were measured as follows:
The substrate was fixedly mounted on a total internal reflection fluorescence and imaged to obtain data for protein-protein interaction (binding). […]
(§2) For example, the method proposed in this Example can quantitatively measure changes in PPI intensity and complex formation after and before treatment with BCL2-targeting inhibitors. […]

[2] = molecular target: T2, MCL1-NOXA interaction (Homo sapiens, UniProt Q07820); assay: PPI between endogenous MCL1 of drug-treated cells and exogenous GFP-NOXA; type: cell-based; conditions: HL60 or OCI-LY3 cells, 100 nM, 24 hours, vs DMSO
T2 construct: endogenous in cells; host or cells: HL60, OCI-LY3
Description: Excess lysate was washed off with a washing buffer (HEPES 50 mM NaCl 150 mM glycerol 1% GDN 0.03%). Then, protein-protein interactions were measured as follows: […]

[3] = molecular target: T3, BCL-XL (Homo sapiens, UniProt Q07817); assay: PPI of endogenous BCL-XL of drug-treated cells with exogenous BAD; type: cell-based; conditions: HL60 or OCI-LY3 cells, 100 nM, 24 hours, vs DMSO
T3 construct: endogenous in cells; host or cells: HL60, OCI-LY3
Description: as §1
The cell lysate, prepared in Example 1.2, containing the probe-labeled first protein-interacting protein was added to the substrate prepared in Example 1.3. […] Then, protein-protein interactions were measured as follows: […]
as §2

[4] = molecular target: T4, BCL2-BIM interaction (Homo sapiens, UniProt P10415); assay: BCL2-BIM PPI intensity with inhibitor added together with BIM-GFP to pulled-down BCL2; type: binding; conditions: various concentrations of inhibitor added with BIM-GFP; BCL2 from HL60
Description: Excess lysate was washed off with a washing buffer (HEPES 50 mM NaCl 150 mM glycerol 1% GDN 0.03%). Then, protein-protein interactions were measured as follows:
This Example can be used to measure direct relationship between targeting inhibitors used and the BCL2 family proteins and related signaling proteins. To this end, BCL2 or MCL1 protein was used as a first protein while BIM-GFP protein served as a first protein-interacting protein.

[5] = tested on: BCL2; assay: BCL2 expression level in drug-treated cells; conditions: OCI-LY3 cells, 24 hours
[6] = tested on: BAX (N-terminus exposed); assay: Detection of N-terminus exposed (active conformation) BAX in GDN lysates of drug-treated cells; type: cell-based, human; conditions: Staurosporine for one hour or venetoclax for 24 hours; lysis buffer containing GDN
Description: (§3) In order to achieve this Example, a specimen may be prepared by artificially inducing apoptosis.

[7] = tested on: BAX; assay: BAX level after forced N-terminus exposure with Triton X-100 in lysates of drug-treated cells; type: cell-based, human; conditions: Staurosporine for one hour or venetoclax for 24 hours; lysis buffer containing Triton X-100
Description: as §3

[8] = tested on: leukocyte count; assay: Leukocyte count of treated blood cancer patients; type: in vivo, human
Description: The method provided herein can lead to a method for tracing molecular states of a patient with time. In greater detail, the interaction analysis of bone marrow or blood specimens collected at various stages from a blood cancer patient can be used to provide information helpful in determining BCL2 family protein-dependence and whether to administer a corresponding targeted anticancer agent. […] Afterwards, a cord blood stem cell transplantation brought about complete remission in the patient. In addition, time series diagnosis was performed for patient 2 in the same manner as for patient 1 (FIG. 35). In patient 2, the signaling pathway of the BCL2 family protein could not be controlled by prescribing the FLT3 targeting inhibitor, either. […] From the results obtained above, it is understood that quizartinib prescription cannot bring about any clinical effect.

[9] = molecular target: T4, BCL2-BIM interaction; assay: BCL2-BIM PPI in bone marrow or whole blood specimens of blood cancer patients over the course of treatment; type: in vivo; design: PPI counts between BCL2, MCL1, or BCL-XL, all endogenous to the samples from patient 1, and exogenous BIM; from tissue; host or cells: bone marrow and whole blood of blood cancer patients; conditions: patient 1; bone marrow after quizartinib, whole blood after venetoclax and LDAC
Description: The method provided herein can lead to a method for tracing molecular states of a patient with time. In greater detail, the interaction analysis of bone marrow or blood specimens collected at various stages from a blood cancer patient can be used to provide information helpful in determining BCL2 family protein-dependence and whether to administer a corresponding targeted anticancer agent. […] Afterwards, a cord blood stem cell transplantation brought about complete remission in the patient.
In addition, time series diagnosis was performed for patient 2 in the same manner as for patient 1 (FIG. 35). In patient 2, the signaling pathway of the BCL2 family protein could not be controlled by prescribing the FLT3 targeting inhibitor, either. […] From the results obtained above, it is understood that quizartinib prescription cannot bring about any clinical effect.

T1 sequence (P10415 whole entry): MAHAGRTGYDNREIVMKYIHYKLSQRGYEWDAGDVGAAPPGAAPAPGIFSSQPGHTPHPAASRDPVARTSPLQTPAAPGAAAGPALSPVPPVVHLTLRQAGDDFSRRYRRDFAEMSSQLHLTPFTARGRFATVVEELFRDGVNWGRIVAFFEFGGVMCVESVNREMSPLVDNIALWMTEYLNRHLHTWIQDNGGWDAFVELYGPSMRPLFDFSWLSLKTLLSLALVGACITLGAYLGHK
T4 sequence (P10415 whole entry): as above
T2 sequence (Q07820 whole entry): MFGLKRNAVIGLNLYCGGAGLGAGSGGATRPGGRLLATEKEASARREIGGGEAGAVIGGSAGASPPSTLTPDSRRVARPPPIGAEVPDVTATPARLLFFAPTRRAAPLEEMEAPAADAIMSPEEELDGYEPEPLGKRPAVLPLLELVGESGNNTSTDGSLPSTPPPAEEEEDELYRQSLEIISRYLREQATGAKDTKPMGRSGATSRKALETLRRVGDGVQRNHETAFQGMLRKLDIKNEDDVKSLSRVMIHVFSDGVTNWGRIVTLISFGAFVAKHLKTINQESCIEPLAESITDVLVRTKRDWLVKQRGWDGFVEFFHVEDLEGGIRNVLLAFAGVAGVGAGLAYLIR
T3 sequence (Q07817 whole entry): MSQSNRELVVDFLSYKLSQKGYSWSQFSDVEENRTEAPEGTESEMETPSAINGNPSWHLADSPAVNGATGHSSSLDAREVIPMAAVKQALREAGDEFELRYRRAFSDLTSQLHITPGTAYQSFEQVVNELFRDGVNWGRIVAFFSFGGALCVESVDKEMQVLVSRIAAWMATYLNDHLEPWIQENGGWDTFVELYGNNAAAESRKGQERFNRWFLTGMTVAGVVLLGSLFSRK

Compound: CO[C@H]1/C=C/C[C@H](C)[C@@H](C)S(=O)(=O)NC(=O)c2ccc3c(c2)N(C[C@@H]2CC[C@H]21)C[C@@]1(CCCc2cc(Cl)ccc21)CO3 [AMG176]
- BCL2-BAD PPI intensity ([1]; HL60 and OCI-LY3 cells, 100 nM, vs DMSO): did not change
- MCL1-NOXA PPI [2]: selectively increase
- BCL-XL PPI intensity [3]: responsive to none

Compound: Cc1c2c(nn1C)CSCc1cc(n(C)n1)CSc1cc(c3ccccc3c1)OCCCc1c(C(=O)O)n(C)c3c-2c(Cl)ccc13 [AZD5991]
- BCL2-BAD interaction (PPI) ([1]; OCI-LY3 cells, vs non-treated group): no influences
- BCL2-BIM PPI intensity [4]: not affected
- expression level of BCL2 [5]: does not incite a significant change

Compound: CN[C@@H]1C[C@H]2O[C@@](C)([C@@H]1OC)n1c3ccccc3c3c4c(c5c6ccccc6n2c5c31)C(=O)NC4 [Staurosporine]
- N-terminus exposed BAX signals [6]: increased signals
- N-terminus-exposed BAX after artificial exposure with Triton X-100 [7]: constant values

Compound: CC(C)(C)c1cc(NC(=O)Nc2ccc(-c3cn4c(n3)sc3cc(OCCN5CCOCC5)ccc34)cc2)no1 [quizartinib]
- leukocyte count ([8]; patient 1): drastic rise
- leukocyte count ([8]; patient 2): about three folds increased
- BCL2-BIM PPI [9]: drastic increase
